Legend:
[1] = tested on: intracellular ROS level in HaCaT cells; test: ROS measurement with CM-H2DCFDA after UVB radiation; type: cell-based, Human; details: for ROS level post-UVB: UVB 50 mJ/cm^2, 6 h, UVB alone 2.1-fold
Description: FIG. 2: Dose dependent effect of carnosol on UVB-induced intracellular ROS level. HaCaT cells were seeded in 96 well plate and incubated with CM-H2DCFDA dye one hour prior to UVB exposure, with or without carnosol treatment. ROS was measured at 6 h post UVB radiation with indicated concentration of carnosol treatment using ex490/em520 nm. The data represents three to five sets of independent experiments. *p<0.05 versus corresponded control group, **p<0.05 versus UV alone.
FIGS. 3A-3B: Time dependent effect of carnosol on UVB-induced intracellular ROS level. HaCaT cells were seeded in 96 well plate and CM-H2DCFDA dye was used to measure intracellular ROS level. Carnosol (20 μM) was added to cells 1 h prior to UVB exposure, and ROS level was measured at 20 min intervals post UVB. (FIG. 3A) Intracellular ROS level at 20 min intervals with or without carnosol treatment. (FIG. 3B) Statistical analysis of intracellular ROS level at 240, 480, 720 min post UVB radiation with or without carnosol (20 μM) treatment. *p<0.05 versus corresponded control group, **p<0.05 versus corresponded UV group.
UVB was generated from a Bench XX-Series UV Lamp (UVP Inc.) equipped with two 15-watt UVB tubes (UVP Inc.). The intensity of UVB was calibrated by a UVP model UVX digital radiometer (UVP Inc.) after the lamps warmed up for 5 min. For irradiating cells, the dose rate for 8 mJ/cm^2 or 50 mJ/cm^2 of UVB radiation was 0.8 or 3.8 mW/s respectively. Medium was removed before exposing the cells to UVB. After UVB radiation, fresh medium was added to the culture plates with or without drugs, and the cells were continue incubating at 37° C. with 5% CO2 until further analysis. Carnosol was disovled in DMSO and was irradiated with 50 mJ/cm^2 of UVB radiation at a dose rate of 3.8 mW/s before subjecting to cells or structure analysis using Mass Spectrum.
Carnosol (Cayman) (FIG. 1) was added to cells at indicated concentration at 1 h before exposing the cells to UVB radiation. After radiation, cells were continuously incubated with or without carnosol in the medium until further analysis.
CM-H2DCFDA (Invitrogen) was used to measure the total ROS level in cells. CM-H2DCFDA was dissolved in DMSO to a stock solution of 500 μM and diluted in PBS to final concentration of 5 μM. CM-H2DCFDA was added into cells 1 h prior to UVB exposure and the reading of fluorescence dye was recorded every 20 minutes using luminometer (Molecular devices Spectra Max M2).

[2] = tested on: NF-κB; test: Western blot for S276 phosphorylation of NF-κB, HaCaT cells; type: cell-based, Human; details: 20 μM carnosol, 6 h post UVB
Description: FIGS. 7A-7F: Carnosol inhibited UVB-induced NF-κB activation. Cells were exposed to UVB radiation in the presence or absence of carnosol. Cells were lysed at indicated time point and protein levels were measured by western blot analysis. (FIG. 7A) Western blot for IκB protein level in HaCaT cells at 2, 4 h post UVB radiation at 1, 10 or 20 μM carnosol treatment. (FIG. 7B) Western blot analysis for IκB protein level in HaCaT cells at 6 h post UVB radiation in the presence or absence of carnosol. (FIG. 7C) Western blot analysis for IκB protein level in MEF cells at 6 h post UVB radiation in the presence or absence of carnosol. (FIG. 7D) Western blot for 5276 site phosphorylation of NF-κB in HaCaT cells at 6 h post UVB with indicated carnosol concentration. (FIG. 7E) EMSA assay for HaCaT cells at 2, 4, 6 h post UVB radiation in the presence or absence of carnosol (20 μM). (FIG. 7F) Statistical analysis of the EMSA assay using two to three sets of independent experiments. *p<0.05 versus control group, **p<0.05 versus UV group at indicated time point.
Cells were lysed with Nonidet P-40 (NP-40) lysis buffer (2% NP-40, 80 mM NaCl, 100 mM Tris-HCl pH 8.0, 0.1% SDS) with proteinase inhibitor mixture (Complete™, Roche Molecular Biochemicals) at indicated time point. […] Protein concentration was measured by Protein DC Assay kit (Bio-Rad Laboratories). […]

[3] = tested on: cyclobutane pyrimidine dimer (CPD) formation; test: Quantitative measurement of CPD formation after UVB; type: cell-based; details: with vs without carnosol
Text: FIG. 5E: Quantitative measurement of cyclobutane pyrimidine dimer (CPD) formation, with and without UVB, and with and without carnosol. *p<0.05 versus corresponded control group, **p<0.05 versus corresponded UV group.
There are two major forms of DNA damage caused by UVB radiation: one is the direct DNA damage which forms CPD; the other is the oxidation-caused DNA damage, which causes the formation of 6-4 PP. In order to identify which form of DNA damage is protected by carnosol, a quantitative assay to identify the production of both DNA damage products after UVB radiation with or without carnosol treatment was performed.

Compound: CC(C)c1cc2c(c(O)c1O)[C@@]13CCCC(C)(C)[C@@H]1C[C@@H]2OC3=O [carnosol]
- ROS level post-UVB ([1]; 0.1 μM carnosol): not statistically significantly changed
- ROS level post-UVB ([1]; 0.5 μM carnosol): not statistically significantly changed
- ROS level post-UVB ([1]; 10 μM carnosol): about 1.5 fold
- ROS level in the irradiated cells ([1]; 20 μM carnosol, 20 min to 10 h post-UVB): continuously reduces
- decrease of ROS level ([1]; 20 μM carnosol, 240 min after UVB): ~30%
- decrease of ROS level ([1]; 20 μM carnosol, 480 min after UVB): ~30%
- decrease of ROS level ([1]; 20 μM carnosol, 720 min after UVB): ~30%
- ROS level post-UVB ([1]; 20 μM carnosol): ~1.3 fold
- decrease of ROS level ([1]; 20 μM carnosol, immediately after UVB treatment): 20%
- ROS level in untreated cells ([1]; 20 μM carnosol, no UVB, 20 min intervals up to 12 h): did not statistically significant affect
- ROS level post-UVB ([1]; 30 μM carnosol): ~1.3 fold
- ROS level ([1]; carnosol alone 0.1 μM to 30 μM, no UVB (Control), 6 h): no statistic significant effect
- phosphorylation of NF-κB at Serine 276 (S276) [2]: reduces the phosphorylation
- formation of CPD after UVB radiation [3]: almost by half

— US20190388389A1, “METHODS AND COMPOSITIONS OF CARNOSOL FOR INHIBITING UVB-INDUCED SKIN DAMAGE” (Ohio University, priority 2017, published 2019)
